Data taken from patent US7250410B2, “Cyclic nucleotide phosphodiesterase inhibitors, preparation and uses thereof” (Via Pharmaceuticals, Inc., priority 2001, dated 2007).
pIC50: −log10 of the molar value.

target: PDE4; experiment: Inhibition of PDE4, radioenzymatic phosphodiesterase assay; type: biochemical, bovine; conditions: Table 1, formula (III); 1 μM cyclic AMP
Description: A 3 g segment of bovine aortic media cut into pieces with scissors was homogenized with an ultra-turrax then a potter glass/glass homogenizer in 7 volumes by weight of buffer A containing a protease inhibitor cocktail (20 mM Tris-HCl, 0.25 M saccharose, 2 mM magnesium acetate, 1 mM dithiothreitol, 5 mM EGTA, 2000 U/ml aprotinin, 10 mg/l leupeptin and 10 mg/l soya trypsic inhibitor). The homogenizate was centrifuged at 105,000 g for 1 hour. […] The column was washed until there was no detectable absorption at 280 nm, then eluted with a linear gradient of NaCl (0–0.5 M) in buffer B. 3-ml fractions were collected and enzyme activity was determined under the conditions described hereinafter to localize the different enzymes PDE1, PDE3, PDE4 and PDE5, which were aliquoted and frozen at −80° C.
The nucleoside formed was separated from the nucleotides by anion exchange chromatography. Nucleoside radioactivity was determined by liquid scintillation counting.

Row | Compound | pIC50
1 | COc1ccc(-c2ccc(C3=NN(C)C(=O)Cc4cc(OC)c(OC)cc43)cc2)cc1 [IIIao, 7,8-dimethoxy-1-[4-(4-methoxyphenyl)phenyl]-3-methyl-3,5-dihydro-4H-2,3-benzodiazepin-4-one] | 5.77
2 | COc1cc2c(cc1OC)C(c1ccc(-c3cccc(NC(C)=O)c3)cc1)=NN(C)C(=O)C2 [IIIam, 1-[4-(3-acetamidophenyl)phenyl]-7,8-dimethoxy-3-methyl-3,5-dihydro-4H-2,3-benzodiazepin-4-one] | 5.77
3 | COc1cc2c(cc1OC)C(c1ccc(-c3cccc(C(F)(F)F)c3)cc1)=NN(C)C(=O)C2 [IIIap, 1-[4-[3-(trifluoromethyl)phenyl]phenyl]-7,8-dimethoxy-3-methyl-3,5-dihydro-4H-2,3-benzodiazepin-4-one] | 5.72
4 | COc1cc2c(cc1OC)C(c1ccc(-c3cccs3)cc1)=NN(C)C(=O)C2 [IIIau, 7,8-dimethoxy-3-methyl-1-[4-(2-thienyl)phenyl]-3,5-dihydro-4H-2,3-benzodiazepin-4-one] | 5.42
5 | COc1cc2c(cc1OC)C(c1ccc(I)cc1)=NN(C)C(=O)C2 [IIIah, 1-(4-iodophenyl)-7,8-dimethoxy-3-methyl-3,5-dihydro-4H-2,3-benzodiazepin-4-one] | 5.51
6 | COc1cc2c(cc1OC)C(c1ccc(-c3ccc(Cl)cc3)cc1)=NN(C)C(=O)C2 [IIIat, 1-[4-(4-chlorophenyl)phenyl]-7,8-dimethoxy-3-methyl-3,5-dihydro-4H-2,3-benzodiazepin-4-one] | 5.64
7 | CCOc1cc2c(cc1OCC)C(c1cc3ccccc3s1)=NN(C)C(=O)C2 [IIIba, 1-(2-benzo[b]thienyl)-7,8-diethoxy-3-methyl-3,5-dihydro-4H-2,3-benzodiazepin-4-one] | 5.16

same assay, conditions: Table 2, formula (XXII); 1 μM cyclic AMP

Row | Compound | pIC50
8 | COc1cc2c(cc1OC)C(c1ccccc1)=NC(c1ccccc1)C(=O)N2 (centres unmarked) [XXIIaz, 7,8-dimethoxy-3,5-diphenyl-1,3-dihydro-2H-1,4-benzodiazepin-2-one] | 5.02

same assay, conditions: Table 2, formula (XXII); compound at 10 μM

Row | Compound | PDE4 percentage inhibition at 10 μM [%]
9 | COc1cc2c(cc1OC)C(c1ccccc1)=N[C@@H](CCCCNC(=N)N)C(=O)N2.O=C(O)C(F)(F)F.O=C(O)C(F)(F)F [XXIIay, N-[4-(7,8-dimethoxy-2-oxo-5-phenyl-2,3-dihydro-1H-1,4-benzodiazepin-3-yl)butyl]guanidinium (S)-bis trifluoroacetate] | 19.6
10 | COc1cc2c(cc1OC)C(c1ccccc1)=NCC(=O)N2 [XXIIaa, 7,8-dimethoxy-5-phenyl-1,3-dihydro-2H-1,4-benzodiazepin-2-one] | 25.8
11 | COc1cc2c(cc1OC)C(c1ccccc1)=NC(CC(C)C)C(=O)N2 (centres unmarked) [XXIIad, 7,8-dimethoxy-3-isobutyl-5-phenyl-1,3-dihydro-2H-1,4-benzodiazepin-2-one] | 14.9
12 | COc1cc2c(cc1OC)C(c1ccccc1)=NC(Cc1c[nH]cn1)C(=O)N2 (centres unmarked) [XXIIar, 7,8-dimethoxy-3-(1H-imidazol-4-ylmethyl)-5-phenyl-1,3-dihydro-2H-1,4-benzodiazepin-2-one] | 49.3
13 | COc1cc2c(cc1OC)C(c1ccccc1)=NC(CCSC)C(=O)N2 (centres unmarked) [XXIIat, 7,8-dimethoxy-3-(2-methylthioethyl)-5-phenyl-1,3-dihydro-2H-1,4-benzodiazepin-2-one] | 29

same assay, conditions: Table 3, formula (II); 1 μM cyclic AMP

Row | Compound | pIC50
14 | CCN1C(=O)C(Cc2ccccc2Br)N=C(c2ccccc2)c2cc(OC)c(OC)cc21 (centres unmarked) [IIcc, 3-(2-bromobenzyl)-1-ethyl-7,8-dimethoxy-5-phenyl-1,3-dihydro-2H-1,4-benzodiazepin-2-one] | 5.30
15 | CCOc1cc2c(cc1OC)C(c1ccccc1)=NC(Cc1ccccc1C#N)C(=O)N2C (centres unmarked) [IIdg, 2-[(8-ethoxy-7-methoxy-1-methyl-2-oxo-5-phenyl-2,3-dihydro-1H-1,4-benzodiazepin-3-yl)methyl]benzonitrile] | 5.96
16 | CCN1C(=O)C(Cc2ccccc2[N+](=O)[O-])N=C(c2ccccc2)c2cc(OC)c(OC)cc21 (centres unmarked) [IIbh, 7,8-dimethoxy-1-ethyl-3-(2-nitrobenzyl)-5-phenyl-1,3-dihydro-2H-1,4-benzodiazepin-2-one] | 5.62
17 | CCN1C(=O)CN=C(c2cccc(Br)c2)c2cc(OC)c(OC)cc21 [IIbm, 5-(3-bromophenyl)-1-ethyl-7,8-dimethoxy-1,3-dihydro-2H-1,4-benzodiazepin-2-one] | 5.14
18 | COc1cc2c(cc1OC)N(C)C(=O)CN=C2/C=C/c1ccccc1 [IIas, 7,8-dimethoxy-1-methyl-5-[(E)-2-phenylethenyl]-1,3-dihydro-2H-1,4-benzodiazepin-2-one] | 5.08
19 | CCOc1cc2c(cc1OCC)N(Cc1ccccc1)C(=O)CN=C2c1ccccc1 [IIbj, 1-benzyl-7,8-diethoxy-5-phenyl-1,3-dihydro-2H-1,4-benzodiazepin-2-one] | 5.19
20 | CCOc1cc2c(cc1OCC)N(CC)C(=O)C(Cc1ccccc1)N=C2c1ccccc1 (centres unmarked) [IIcv, 3-benzyl-7,8-diethoxy-1-ethyl-5-phenyl-1,3-dihydro-2H-1,4-benzodiazepin-2-one] | 5.51
21 | [(7,8-dimethoxy-1-ethyl-2-oxo-2,3-dihydro-1H-1,4-benzodiazepin-3-yl)benz-2-yl]carboxamide [IIci] | 5.84
22 | CCOc1cc2c(cc1OCC)N(C)C(=O)CN=C2c1ccccc1 [IIbf, 7,8-diethoxy-1-methyl-5-phenyl-1,3-dihydro-2H-1,4-benzodiazepin-2-one] | 6.07
23 | CCN1C(=O)C(Cc2ccccc2CN)N=C(c2ccccc2)c2cc(OC)c(OC)cc21 (centres unmarked) [IIcg, 3-(2-aminomethylbenzyl)-7,8-dimethoxy-1-ethyl-5-phenyl-1,3-dihydro-2H-1,4-benzodiazepin-2-one] | 5.17
24 | CCOc1cc2c(cc1OC)C(c1ccccc1)=NC(c1ccccc1)C(=O)N2CC (centres unmarked) [IIdk, 3,5-diphenyl-8-ethoxy-1-ethyl-7-methoxy-1,3-dihydro-2H-1,4-benzodiazepin-2-one] | 5.96

same assay, conditions: Table 3, formula (II); compound at 10 μM

Row | Compound | PDE4 percentage inhibition at 10 μM [%]
25 | COc1cc2c(cc1OC)N(C)C(=O)CN=C2c1ccc(C(C)=O)cc1 [IIai, 5-(4-acetylphenyl)-7,8-dimethoxy-1-methyl-1,3-dihydro-1,4-benzodiazepin-2-one] | 39
26 | COc1cc2c(cc1OC)N(CCO)C(=O)CN=C2c1ccccc1 [IIcx, 7,8-dimethoxy-1-(2-hydroxyethyl)-5-phenyl-1,3-dihydro-2H-1,4-benzodiazepin-2-one] | 9.9
27 | COc1ccc2c(c1)C(c1ccccc1)=NCC(=O)N2C [IIdl, 7-methoxy-1-methyl-5-phenyl-1,3-dihydro-2H-1,4-benzodiazepin-2-one] | 34.6
28 | COc1ccc(C2=NCC(=O)N(C)c3cc(OC)c(OC)cc32)cc1OC [IIab, 7,8-dimethoxy-5-(3,4-dimethoxyphenyl)-1-methyl-1,3-dihydro-1,4-benzodiazepin-2-one] | 38
29 | COc1cc2c(cc1OC)N(C)C(=O)CN=C2C#Cc1ccccc1 [IIat, 7,8-dimethoxy-1-methyl-5-(2-phenylethynyl)-1,3-dihydro-2H-1,4-benzodiazepin-2-one] | 3.9
30 | COc1cc2c(cc1OC)N(C)C(=O)CN=C2c1cc(C(F)(F)F)cc(C(F)(F)F)c1 [IIaf, 7,8-dimethoxy-1-methyl-5-(3, 5 bistrifluoromethylphenyl)-1,3-dihydro-2H-1,4-benzodiazepin-2-one] | 11.7
31 | COc1cc2c(cc1OC)N(C)C(=O)CN=C2c1ccccc1C [IIau, 7,8-dimethoxy-1-methyl-5-(2-methylphenyl)-1,3-dihydro-1,4-benzodiazepin-2-one] | 18.5
32 | COc1cc2c(cc1OC)N(C)C(=O)[C@H](Cc1ccccc1)N=C2c1ccccc1 [IIdj, (S)-3-benzyl-7,8-dimethoxy-1-methyl-5-phenyl-1,3-dihydro-2H-1,4-benzodiazepin-2-one] | 48.3
33 | CCN1C(=O)C(Cc2ccc(-c3ccccc3)cc2)N=C(c2ccccc2)c2cc(OC)c(OC)cc21 (centres unmarked) [IIck, 3-(1,1′-biphenyl-4-ylmethyl)-1-ethyl-7,8-dimethoxy-5-phenyl-1,3-dihydro-2H-1,4-benzodiazepin-2-one] | 32.2
34 | CCN1C(=O)C(Cc2ccc(C)cc2)N=C(c2ccccc2)c2cc(OC)c(OC)cc21 (centres unmarked) [IIdd, 1-ethyl-7,8-dimethoxy-3-(4-methylbenzyl)-5-phenyl-1,3-dihydro-2H-1,4-benzodiazepin-2-one] | 31.5
35 | CCN1C(=O)CN=C(c2ccccc2)c2cc(O)c(O)cc21 [IIbk, 1-ethyl-7,8-dihydroxy-5-phenyl-1,3-dihydro-2H-1,4-benzodiazepin-2-one] | 14.2
36 | CCOC(=O)CC1N=C(c2ccccc2)c2cc(OC)c(OC)cc2N(CC)C1=O (centres unmarked) [IIbv, ethyl (1-ethyl-7,8-dimethoxy-2-oxo-5-phenyl-2,3-dihydro-1H-1,4-benzodiazepin-3-yl)acetate] | 44.4
37 | CCN1C(=O)C(Cc2ccc(Cl)cc2Cl)N=C(c2ccccc2)c2cc(OC)c(OC)cc21 (centres unmarked) [IIco, 3-(2,4-dichlorobenzyl)-7,8-dimethoxy-1-ethyl-5-phenyl-1,3-dihydro-2H-1,4-benzodiazepin-2-one] | 34.3

same assay, conditions: Table 3, formula (II); compound at 10 μM; 10 µM

Row | Compound | PDE4 percentage inhibition at 10 μM [%]
38 | CCN1C(=O)C(Cc2ccc(Cl)cc2)N=C(c2ccccc2)c2cc(OC)c(OC)cc21 (centres unmarked) [IIbq, 3-(4-chlorobenzyl)-1-ethyl-7,8-dimethoxy-5-phenyl-1,3-dihydro-2H-1,4-benzodiazepin-2-one] | 33.8
